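In this assay, cells in 96-well plates receive the compound at five concentrations for 48 hours. Endpoints are linearly interpolated between the surrounding concentrations. TGI: total growth inhibition.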
Key:
Assay in all cases: DTP human tumour cell line panel, 48 h
[1] = test system: SF-539 CNS
[2] = test system: SF-295 CNS
[3] = test system: IGROV1 ovarian
[4] = test system: OVCAR-4 ovarian
[5] = test system: SW-620 colon
[6] = test system: SNB-19 CNS
[7] = test system: TK-10 renal
[8] = test system: HCT-116 colon
[9] = test system: A549 NSCLC
[10] = test system: ACHN renal
[11] = test system: CCRF-CEM leukemia
[12] = test system: DU-145 prostate
[13] = test system: OVCAR-5 ovarian
[14] = test system: SN12C renal
[15] = test system: NCI/ADR-RES ovarian
[16] = test system: MCF7 breast
[17] = test system: UACC-257 melanoma
[18] = test system: T-47D breast
[19] = test system: SK-MEL-5 melanoma
[20] = test system: HCC-2998 colon
[21] = test system: SK-MEL-28 melanoma
[22] = test system: RXF 393 renal
[23] = test system: OVCAR-8 ovarian
[24] = test system: MALME-3M melanoma
[25] = test system: PC-3 prostate
[26] = test system: EKVX NSCLC
[27] = test system: NCI-H460 lung
[28] = test system: SK-MEL-2 melanoma
[29] = test system: OVCAR-3 ovarian
[30] = test system: CAKI-1 renal
[31] = test system: HOP-62 NSCLC
[32] = test system: KM12 colon
[33] = test system: LOX IMVI melanoma
[34] = test system: HS 578T breast
[35] = test system: RPMI-8226 leukemia
[36] = test system: M14 melanoma
[37] = test system: MDA-N
[38] = test system: SF-268 CNS
[39] = test system: SNB-75 CNS
[40] = test system: HCT-15 colon
[41] = test system: MOLT-4 leukemia
[42] = test system: A498 renal
[43] = test system: SK-OV-3 ovarian
[44] = test system: COLO 205 colon
[45] = test system: HOP-92 NSCLC
[46] = test system: NCI-H522 lung
[47] = test system: HT29 colon
[48] = test system: SR leukemia
[49] = test system: K-562 leukemia
[50] = test system: 786-0 renal
[51] = test system: U251 CNS
[52] = test system: NCI-H23 lung
[53] = test system: MDA-MB-435
[54] = test system: NCI-H226 lung
[55] = test system: UO-31 renal
[56] = test system: UACC-62 melanoma
[57] = test system: HL-60(TB) leukemia
[58] = test system: BT-549 breast
[59] = test system: MDA-MB-231 breast

Question: Which TGI [1] does the source give for `Cn1c([N+](=O)[O-])cnc1CN1CCN(CCO)CC1` here?
Answer: > 100 µM

Question: What about the TGI [2] of the same molecule?
Answer: > 100 µM

Question: And the TGI [3]?
Answer: > 100 µM

Question: And the TGI [4]?
Answer: > 100 µM

Question: What about the TGI [5] of the same molecule?
Answer: > 100 µM

Question: What about the TGI [6] of the same molecule?
Answer: > 100 µM

Question: And the TGI [7]?
Answer: > 100 µM

Question: And the TGI [8]?
Answer: > 100 µM

Question: And the TGI [9]?
Answer: > 100 µM

Question: And the TGI [10]?
Answer: > 100 µM

Question: What about the TGI [11] of the same molecule?
Answer: > 100 µM

Question: What about the TGI [12] of the same molecule?
Answer: > 100 µM

Question: And the TGI [13]?
Answer: > 100 µM

Question: What about the TGI [14] of the same molecule?
Answer: > 100 µM

Question: What about the TGI [15] of the same molecule?
Answer: > 100 µM

Question: And the TGI [16]?
Answer: > 100 µM

Question: What about the TGI [17] of the same molecule?
Answer: > 100 µM

Question: And the TGI [18]?
Answer: > 100 µM

Question: And the TGI [19]?
Answer: > 100 µM

Question: What about the TGI [20] of the same molecule?
Answer: > 100 µM

Question: What about the TGI [21] of the same molecule?
Answer: > 100 µM

Question: What about the TGI [22] of the same molecule?
Answer: > 100 µM

Question: And the TGI [23]?
Answer: > 100 µM

Question: And the TGI [24]?
Answer: > 100 µM

Question: What about the TGI [25] of the same molecule?
Answer: > 100 µM

Question: And the TGI [26]?
Answer: > 100 µM

Question: What about the TGI [27] of the same molecule?
Answer: > 100 µM

Question: What about the TGI [28] of the same molecule?
Answer: > 100 µM

Question: What about the TGI [29] of the same molecule?
Answer: > 100 µM

Question: And the TGI [30]?
Answer: > 100 µM

Question: And the TGI [31]?
Answer: > 100 µM

Question: What about the TGI [32] of the same molecule?
Answer: > 100 µM

Question: And the TGI [33]?
Answer: > 100 µM

Question: What about the TGI [34] of the same molecule?
Answer: > 100 µM

Question: What about the TGI [35] of the same molecule?
Answer: > 100 µM

Question: What about the TGI [36] of the same molecule?
Answer: > 100 µM

Question: And the TGI [37]?
Answer: > 100 µM

Question: And the TGI [38]?
Answer: > 100 µM

Question: What about the TGI [39] of the same molecule?
Answer: > 100 µM

Question: And the TGI [40]?
Answer: > 100 µM

Question: What about the TGI [41] of the same molecule?
Answer: > 100 µM

Question: And the TGI [42]?
Answer: > 100 µM

Question: What about the TGI [43] of the same molecule?
Answer: > 100 µM

Question: And the TGI [44]?
Answer: > 100 µM

Question: And the TGI [45]?
Answer: > 100 µM

Question: What about the TGI [46] of the same molecule?
Answer: > 100 µM

Question: And the TGI [47]?
Answer: > 100 µM

Question: And the TGI [48]?
Answer: > 100 µM

Question: What about the TGI [49] of the same molecule?
Answer: > 100 µM

Question: What about the TGI [50] of the same molecule?
Answer: > 100 µM

Question: What about the TGI [51] of the same molecule?
Answer: > 100 µM

Question: And the TGI [52]?
Answer: > 100 µM

Question: And the TGI [53]?
Answer: > 100 µM

Question: And the TGI [54]?
Answer: > 100 µM

Question: And the TGI [55]?
Answer: > 100 µM

Question: And the TGI [56]?
Answer: > 100 µM

Question: What about the TGI [57] of the same molecule?
Answer: > 100 µM

Question: And the TGI [58]?
Answer: > 100 µM

Question: What about the TGI [59] of the same molecule?
Answer: > 100 µM

Question: For `Cc1noc(NS(=O)(=O)c2ccc(NC(=O)c3ccc4nc5ccccc5c(Nc5ccc(S(=O)(=O)Nc6onc(C)c6C)cc5)c4c3)cc2)c1C`, which TGI [1] is on record?
Answer: > 100 µM

Question: And the TGI [2]?
Answer: > 100 µM

Question: And the TGI [3]?
Answer: > 100 µM

Question: What about the TGI [4] of the same molecule?
Answer: > 100 µM

Question: And the TGI [5]?
Answer: > 100 µM

Question: And the TGI [6]?
Answer: > 100 µM

Question: What about the TGI [7] of the same molecule?
Answer: > 100 µM

Question: What about the TGI [8] of the same molecule?
Answer: > 100 µM

Question: What about the TGI [9] of the same molecule?
Answer: > 100 µM

Question: And the TGI [10]?
Answer: > 100 µM

Question: What about the TGI [11] of the same molecule?
Answer: > 100 µM

Question: What about the TGI [12] of the same molecule?
Answer: > 100 µM

Question: And the TGI [13]?
Answer: > 100 µM

Question: What about the TGI [14] of the same molecule?
Answer: > 100 µM

Question: And the TGI [15]?
Answer: > 100 µM

Question: And the TGI [16]?
Answer: > 100 µM

Question: And the TGI [17]?
Answer: > 100 µM

Question: And the TGI [18]?
Answer: > 100 µM

Question: What about the TGI [19] of the same molecule?
Answer: > 100 µM

Question: And the TGI [20]?
Answer: > 100 µM

Question: What about the TGI [21] of the same molecule?
Answer: > 100 µM

Question: What about the TGI [22] of the same molecule?
Answer: > 100 µM

Question: What about the TGI [23] of the same molecule?
Answer: > 100 µM

Question: What about the TGI [24] of the same molecule?
Answer: > 100 µM

Question: And the TGI [25]?
Answer: > 100 µM

Question: And the TGI [26]?
Answer: > 100 µM

Question: And the TGI [27]?
Answer: > 100 µM

Question: And the TGI [28]?
Answer: > 100 µM

Question: What about the TGI [29] of the same molecule?
Answer: > 100 µM

Question: And the TGI [30]?
Answer: > 100 µM

Question: What about the TGI [31] of the same molecule?
Answer: > 100 µM

Question: What about the TGI [32] of the same molecule?
Answer: > 100 µM

Question: And the TGI [33]?
Answer: 61.3 µM

Question: What about the TGI [34] of the same molecule?
Answer: > 100 µM

Question: And the TGI [35]?
Answer: > 100 µM

Question: And the TGI [36]?
Answer: > 100 µM

Question: And the TGI [37]?
Answer: > 100 µM

Question: What about the TGI [38] of the same molecule?
Answer: > 100 µM

Question: And the TGI [39]?
Answer: > 100 µM

Question: And the TGI [40]?
Answer: > 100 µM

Question: And the TGI [41]?
Answer: > 100 µM

Question: And the TGI [42]?
Answer: > 100 µM

Question: And the TGI [43]?
Answer: > 100 µM

Question: What about the TGI [44] of the same molecule?
Answer: > 100 µM

Question: What about the TGI [45] of the same molecule?
Answer: > 100 µM

Question: And the TGI [46]?
Answer: > 100 µM

Question: What about the TGI [47] of the same molecule?
Answer: > 100 µM

Question: What about the TGI [48] of the same molecule?
Answer: > 100 µM

Question: What about the TGI [49] of the same molecule?
Answer: 60.7 µM

Question: And the TGI [50]?
Answer: > 100 µM

Question: What about the TGI [51] of the same molecule?
Answer: > 100 µM

Question: What about the TGI [52] of the same molecule?
Answer: > 100 µM

Question: And the TGI [53]?
Answer: > 100 µM

Question: What about the TGI [54] of the same molecule?
Answer: > 100 µM

Question: And the TGI [55]?
Answer: > 100 µM

Question: And the TGI [56]?
Answer: > 100 µM

Question: What about the TGI [57] of the same molecule?
Answer: > 100 µM

Question: And the TGI [58]?
Answer: 88.8 µM

Question: And the TGI [59]?
Answer: 80.8 µM

Reference: PubChem BioAssay (NCI)
